# Test results reported in patent US20220040255A1, “CHEMOTHERAPEUTIC REMODELING OF THE GUT MICROBIOME” (THE SCRIPPS RESEARCH INSTITUTE, priority 2018, published 2022).
# System: gut microbiota from cecum of LDLr−/− mice
# Experiment: in vitro en masse screening assay (cecum culture, 16S rRNA sequencing)
# Format: cell-based
# Details: Chm- 2 μg
# Description: We have established the following in vitro compound screening protocol for en masse gut microbiome remodeling. We obtain fresh gut microbiome content from LDLr^-/- mice conditioned for at least two weeks on WD by surgically removing cecum under anaerobic conditions. These samples are then mixed with growth media, distributed in 96-well plates, and incubated overnight in the presence of the test peptides. The activity and selectivity of each peptide for remodeling the gut microbiota community was assessed en masse by 16S rRNA sequencing of each well. A number of challenges had to be addressed in developing this protocol, including inoculum handling, choice of growth media, assay duration, etc. Our current assay culture condition maintains 50 bacterial genera (overnight culture), which is fairly representative of the 67 genera found in the uncultured community (Table 2). We used a distance scoring algorithm for a more refined compound selection, in which peptides that remodel the microbiota community most completely from the dysfunctional state (WD fed) toward the functional state (CHD fed) are scored higher. Briefly, we first eliminate cyclic D,L-α-peptides that have broad-spectrum antibacterial activity (inhibit >95% of growth of ≥25% of species in the community). The remaining compounds are then ranked based on how well they suppressed the bacterial species that grew in abundance in WD-fed mice. […] Among these, 40 genera decreased while 14 genera increased in abundance by WD feeding. Within the increased 11 genera, there were 19 bacterial species that were also present in our in vitro culture system. Accordingly, compounds were scored highly when they reduced the levels of 19 bacterial species (lowest summed differences in relative abundance) that were increased by WD feeding to be more similar to their levels in a CHD-fed microbiome (see Table 3 for peptide ranking). Based on these analyses, we chose two peptides for further in vivo validation and efficacy studies: the cationic peptide 1, […] NO:1), and the neutral peptide 11, […] NO:11), which ranked high within their respective peptide clusters. In vitro cecum culture and peptide screening. We screened a number of parameters to optimize the in vitro culture condition for maximal bacterial diversity in liquid culture, including a survey of several different growth media, dilution factors for plate inoculation, and incubation times; further details of the development of this in vitro screen will be reported elsewhere. Female LDLr^-/- mice (8-10 weeks of age) were fed a WD for two weeks. Cecum harvest and all assay steps were performed under anaerobic conditions (Coy Laboratory anaerobic chamber). Cecum contents from three mice were pooled for the assay to provide enough material and to minimize the individual variation in gut microbiome. Cecum contents were suspended in PBS (1.5 ml PBS per 100 mg of cecum content). The mixture was vortexed for 5 min and the supernatant was transferred to a new tube. The cecum content mixture was further diluted in Chopped Meat Carbohydrate Broth (BD 297307) for in vitro peptide screening. […] The concentration of peptide stock in DMSO was calculated based on A280 measurement. For each peptide, an initial 20 mM stock was made in DMSO and diluted to 1 mM in 10% sucrose. From that, a 0.64 mM peptide dilution in 10% sucrose was prepared, and each peptide was further diluted into the assay for peptide screening at two concentrations (64 μM and 16 μM). Bacterial DNA was harvested after 24-hour peptide treatment and isolated with Microbial DNA isolation kit (Mo Bio) following the manufacturer's instructions. 16S rRNA gene sequencing and processing. PCR amplicons of the V3-V4 16S rRNA region were amplified and sequenced using an Illumina MiSeq platform. […]
row,Compound,ranked distance to chow
1,"O=C(N[C@H](CO)[C@H](O)c1ccc([N+](=O)[O-])cc1)C(Cl)Cl [Chm, chloramphenicol, reference compound]",4

# Same assay, conditions: Chm- 8 μg
row,Compound,ranked distance to chow
1,"O=C(N[C@H](CO)[C@H](O)c1ccc([N+](=O)[O-])cc1)C(Cl)Cl [Chm, chloramphenicol, reference compound]",24

# Same assay, conditions: ranking in remodeling WD gut microbiota toward CHD microbiota composition
row,Compound,ranked distance to chow
1,c[FwHlYoHq],18
2,c[LlWhQk],5
3,c[WlLlKkKs] [WllLlKkKs],20
4,c[WlWlWkSk],1
5,c[WwLlHsKk,3
6,c[WwQoHdKt],15
7,c[YlWyKhAe],23
8,c[YlYlYkSo],13
9,c[YwElYsKq],17
10,c[fWwYqHhQ],25
11,c[lFlAlKhK],8
12,c[lLwHoK],7
13,c[wFkSkSkS],19
14,c[wLeLwKsK],9
15,c[wLfKwKkK],6
16,c[wLhLwKrK],11
17,c[wLlEeKkN],21
18,c[wLlWkKkS],10
19,c[wLwSeQeO] [wLwSeQsO],16
20,c[wLwSeQhK],22
21,c[wWwKsKsK],12
